Literature values as cited in patent US20120321577A1, “Skin-whitening composition containing tyrosinase inhibitor” (priority 2011, published 2012).

Conditions: conventionally

## NC[C@H]1CC[C@H](C(=O)O)CC1 [tranexamic acid]
  concentration needed to give whitening effect: higher than 3%
